In PubChem BioAssay AID743090 (Broad Institute, 2013):
Activity calls are given as the source filed them.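 The calls were made as follows: active = IC50 below 10 µM in A549 cells, with the call taken as the median across tests; inactive = IC50 above 10 µM in A549 cells.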

Test system: A549 viability, CellTiter-Glo luminescence, 48 h
Assay: cytotoxicity in TP53 wild-type A549 cells – cell-based, CellTiter-Glo luminescence, dry powder, selectivity assay for TP53-mutant selective toxicity project, dose response (AID 743090)

Row | SMILES | IC50
1 | CCN(CC)c1ccc(C2=NNC(=O)CC2C)cc1 (stereo not drawn) | > 10 µM (inactive)
2 | CCNc1ccc(C2=NNC(=O)C[C@H]2C)cc1[N+](=O)[O-] | > 10 µM (inactive)
3 | C[C@@H]1CC(=O)NN=C1c1ccc(F)cc1 (racemic) | > 10 µM (inactive)
4 | CCNc1ccc(C2=NNC(=O)C[C@H]2C)cc1 | > 10 µM (inactive)
5 | Cc1ccc(CCC(=O)N2CCN(c3ccc(C4=NNC(=O)CC4C)cc3)CC2)cc1 (stereo not drawn) | > 10 µM (inactive)
6 | C#Cc1cc(C2=NNC(=O)C[C@H]2C)ccc1NC(C)=O | > 10 µM (inactive)
7 | O=C1C[C@H]2CCc3cc(N4CCOCC4)ccc3C2=NN1 (racemic) | > 10 µM (inactive)
8 | Cc1nc2ccc(C3=NNC(=O)C[C@H]3C)cc2[nH]1 | > 10 µM (inactive)
9 | CC1CC(=O)N(c2ccccc2)N=C1c1ccc(Cl)cc1 (stereo not drawn) | > 10 µM (inactive)
10 | C[C@@H]1CC(=O)NN=C1c1ccc(F)c(F)c1 | > 10 µM (inactive)
11 | C[C@@H]1CC(=O)NN=C1c1ccc([Si](C)(C)C)cc1 | > 10 µM (inactive)
12 | CC1C(=O)NN=C1c1ccc([N+](=O)[O-])cc1 (stereo not drawn) | > 10 µM (inactive)
13 | C[C@@H]1CC(=O)NN=C1c1ccc(N2CCCCS2(=O)=O)cc1 | > 10 µM (inactive)
14 | O=C1CC(c2ccccc2)=NN1 | > 10 µM (inactive)
15 | CC1CC(=O)NN=C1c1ccc(N2CCN(C(=O)Cc3ccc(Cl)cc3Cl)CC2)cc1 (stereo not drawn) | > 10 µM (inactive)
16 | C[C@@H]1CC(=O)NN=C1c1ccc(-c2cncnc2)cc1 | > 10 µM (inactive)
17 | CCN(CC)c1ccc(-c2nc(C(C)C)no2)cc1[N+](=O)[O-] | > 10 µM (inactive)
18 | C[C@@H]1CC(=O)NN=C1c1ccc(N2CCOCC2)cc1 (racemic) | > 10 µM (inactive)
19 | CC1(C)C(=O)NN=C1c1ccc(N)cc1 | > 10 µM (inactive)
20 | CCN(CC)c1ccc(C2=NNC(=O)CC2C)cc1NCCOCCOCCNC(=O)OC(C)(C)C (stereo not drawn) | > 10 µM (inactive)
21 | C[C@@H]1CC(=O)NN=C1c1ccc(N2CCOCC2)cc1 | > 10 µM (inactive)

Row | SMILES | IC50
22 | CC1CC(=O)NN=C1c1ccc(F)c(F)c1 (stereo not drawn) | > 10 µM (inactive)
23 | C[C@@H]1CC(=O)NN=C1c1ccccc1 | > 10 µM (inactive)
24 | C[C@@H]1CC(=O)NN=C1c1ccc(C2CCCCC2)cc1 | > 10 µM (inactive)
25 | C[C@@H]1CC(=O)NN=C1c1ccc(N2CCOCC2)c(F)c1 | > 10 µM (inactive)
26 | CCN(CC)c1ccc(C2=NNC(=O)CC2C)cc1N (stereo not drawn) | > 10 µM (inactive)
27 | CC(=O)N1CCN(c2ccc(C3=NNC(=O)CC3C)cc2F)CC1 (stereo not drawn) | > 10 µM (inactive)
28 | C[C@@H]1CC(=O)NN=C1c1ccc(N2CCN(C)CC2)cc1 | > 10 µM (inactive)
29 | C[C@@H]1CC(=O)NN=C1c1ccc(N2CCCC2=O)cc1 | > 10 µM (inactive)
30 | C[C@@H]1CC(=O)NN=C1c1ccc(N2CCCOC2=O)cc1 | > 10 µM (inactive)
31 | C[C@@H]1CC(=O)NN=C1c1ccc(N2CCCCC2)cc1 | > 10 µM (inactive)
32 | CC1CC(=O)NN=C1c1cccs1 (stereo not drawn) | > 10 µM (inactive)
33 | CC(=O)Nc1ccc(C2=NNC(=O)C[C@H]2C)cc1[N+](=O)[O-] | > 10 µM (inactive)
34 | CCN(CC)c1ccc(C2=NNC(=O)C[C@H]2C)cc1[N+](=O)[O-] | > 10 µM (inactive)
35 | CC1(C)C(=O)NN=C1c1ccc([N+](=O)[O-])cc1 | > 10 µM (inactive)
36 | CC1CC(=O)NN=C1c1ccc(N2CCOCC2)c(F)c1 (stereo not drawn) | > 10 µM (inactive)
37 | C[C@H]1CC(=O)NN=C1c1ccc(F)c(F)c1 | > 10 µM (inactive)
38 | CC1(C)C(=O)NN=C1c1ccc(N2CCOCC2)cc1 | > 10 µM (inactive)
39 | CC(=O)Nc1ccc(C2=NNC(=O)C[C@H]2C)cc1 | > 10 µM (inactive)
40 | CC(=O)Nc1ccc(C2=NNC(=O)CC2C)cc1 (stereo not drawn) | > 10 µM (inactive)
41 | C[C@@H]1CC(=O)NN=C1c1ccc(C2=CCCCC2)cc1 | > 10 µM (inactive)
42 | C[C@@H]1CC(=O)NN=C1c1ccc(I)cc1 | > 10 µM (inactive)

Row | SMILES | IC50
43 | CC(=O)Nc1ccc(-c2n[nH]c(=O)cc2C)cc1 | > 10 µM (inactive)
44 | CCN(CC)c1ccc(C2=NNC(=O)C[C@H]2C)cc1 | > 10 µM (inactive)
45 | CCCc1ccc(C2=NNC(=O)C[C@H]2C)cc1 | > 10 µM (inactive)
46 | C[C@@H]1CC(=O)NN=C1c1ccc(N2CCCCC2=O)cc1 | > 10 µM (inactive)
47 | CCN(CC)c1ccc(C2=NNC(=O)CC2C)cc1[N+](=O)[O-] (stereo not drawn) | > 10 µM (inactive)
48 | CCN(CC)c1ccc(C2=NNC(=O)CC2C)cc1NC(C)=O (stereo not drawn) | > 10 µM (inactive)
49 | C[C@H]1CC(=O)NN=C1c1ccc(N2CCOCC2)c(F)c1 | > 10 µM (inactive)
50 | C[C@@H]1CC(=O)NN=C1c1ccc(Cl)cc1 | > 10 µM (inactive)
51 | CCN(CC)c1ccc(C(=O)Nc2ccccc2)cc1[N+](=O)[O-] | > 10 µM (inactive)
52 | C[C@@H]1CC(=O)NN=C1c1ccc(N)c([N+](=O)[O-])c1 | > 10 µM (inactive)
53 | CC(=O)Nc1ccc(C2=NNC(=O)C[C@H]2C)cc1Br | > 10 µM (inactive)
54 | C[C@@H]1CC(=O)NN=C1c1ccc(N)c(Br)c1 | > 10 µM (inactive)
55 | CC(=O)Nc1ccc(C2=NNC(=O)C[C@H]2C)cc1N | > 10 µM (inactive)
56 | CC1(C)C(=O)NN=C1c1ccc(Cl)cc1 | > 10 µM (inactive)
57 | CCN(CC)c1ccc(-c2n[nH]c(=O)cc2C)cc1 | > 10 µM (inactive)
58 | C/C=C/c1ccc(C2=NNC(=O)C[C@H]2C)cc1 | > 10 µM (inactive)
59 | CCN(CC)c1ccc(C2=NNC(=O)C2(C)C)cc1 | > 10 µM (inactive)
60 | C[C@@H]1CC(=O)NN=C1c1ccc(-n2cnnc2)cc1 | > 10 µM (inactive)
61 | CCN1N=C(c2ccc(N(CC)CC)cc2)[C@H](C)CC1=O | > 10 µM (inactive)
62 | Cc1cc(=O)[nH]nc1-c1ccc(N)cc1 | > 10 µM (inactive)
63 | CC(=O)Nc1ccc(C2=NNC(=O)C[C@H]2C)cc1C(C)=O | > 10 µM (inactive)
